Reference: ChEMBL document CHEMBL1129221, “Inhibition of nitric oxide synthase by benzoxazolones” (Bioorg Med Chem Lett, 1997)

Legend:
[1] = target: T1, Nitric oxide synthase 1 (Homo sapiens, UniProt P29475); assay: Inhibitory activity against Neuronal nitric oxide synthase
[2] = target: T2, Nitric oxide synthase 3 (Homo sapiens, UniProt P29474); assay: Inhibitory activity against Endothelial nitric oxide synthase
T2 sequence (P29474 whole entry): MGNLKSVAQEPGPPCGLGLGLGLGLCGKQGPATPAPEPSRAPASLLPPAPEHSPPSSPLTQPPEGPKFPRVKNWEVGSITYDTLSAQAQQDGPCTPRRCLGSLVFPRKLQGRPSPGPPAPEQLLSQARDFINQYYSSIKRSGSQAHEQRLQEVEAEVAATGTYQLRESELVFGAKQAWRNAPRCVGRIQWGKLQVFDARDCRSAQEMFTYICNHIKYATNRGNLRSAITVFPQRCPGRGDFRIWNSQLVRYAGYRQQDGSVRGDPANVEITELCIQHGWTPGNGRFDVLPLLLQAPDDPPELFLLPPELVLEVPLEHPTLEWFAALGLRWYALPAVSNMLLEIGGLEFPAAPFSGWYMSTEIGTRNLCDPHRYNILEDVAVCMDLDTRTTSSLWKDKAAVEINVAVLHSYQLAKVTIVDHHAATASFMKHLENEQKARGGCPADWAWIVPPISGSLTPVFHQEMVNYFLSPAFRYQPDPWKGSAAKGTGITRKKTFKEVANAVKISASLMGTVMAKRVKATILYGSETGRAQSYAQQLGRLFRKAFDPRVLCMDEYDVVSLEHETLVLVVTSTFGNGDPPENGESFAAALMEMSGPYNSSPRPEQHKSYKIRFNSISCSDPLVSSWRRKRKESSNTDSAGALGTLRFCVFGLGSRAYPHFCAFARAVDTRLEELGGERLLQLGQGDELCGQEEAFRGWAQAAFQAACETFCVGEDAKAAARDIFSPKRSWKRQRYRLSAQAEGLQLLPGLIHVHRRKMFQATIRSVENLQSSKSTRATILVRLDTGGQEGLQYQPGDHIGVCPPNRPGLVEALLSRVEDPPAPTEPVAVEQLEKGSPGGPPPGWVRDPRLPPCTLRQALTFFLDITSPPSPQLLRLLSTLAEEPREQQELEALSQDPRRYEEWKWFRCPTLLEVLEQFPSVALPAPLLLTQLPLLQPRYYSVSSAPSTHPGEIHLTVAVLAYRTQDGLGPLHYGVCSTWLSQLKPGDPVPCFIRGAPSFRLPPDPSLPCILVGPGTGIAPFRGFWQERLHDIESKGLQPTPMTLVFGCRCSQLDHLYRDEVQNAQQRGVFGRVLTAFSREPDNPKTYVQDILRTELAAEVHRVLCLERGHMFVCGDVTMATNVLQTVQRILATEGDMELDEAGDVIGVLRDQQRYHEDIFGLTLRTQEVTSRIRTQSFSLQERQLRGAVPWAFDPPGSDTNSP

[3] = target: T3, Nitric oxide synthase, inducible (Homo sapiens, UniProt P35228); assay: Inhibitory activity against Inducible nitric oxide synthase
[4] = target: T3, Nitric oxide synthase, inducible; assay: In vitro inhibitory activity against Inducible nitric oxide synthase at 50 uM concentration
[5] = target: T1, Nitric oxide synthase 1; assay: Compound was evaluated for in vitro inhibitory activity against Neuronal nitric oxide synthase; details: concentration not given here

T3 sequence (P35228 whole entry): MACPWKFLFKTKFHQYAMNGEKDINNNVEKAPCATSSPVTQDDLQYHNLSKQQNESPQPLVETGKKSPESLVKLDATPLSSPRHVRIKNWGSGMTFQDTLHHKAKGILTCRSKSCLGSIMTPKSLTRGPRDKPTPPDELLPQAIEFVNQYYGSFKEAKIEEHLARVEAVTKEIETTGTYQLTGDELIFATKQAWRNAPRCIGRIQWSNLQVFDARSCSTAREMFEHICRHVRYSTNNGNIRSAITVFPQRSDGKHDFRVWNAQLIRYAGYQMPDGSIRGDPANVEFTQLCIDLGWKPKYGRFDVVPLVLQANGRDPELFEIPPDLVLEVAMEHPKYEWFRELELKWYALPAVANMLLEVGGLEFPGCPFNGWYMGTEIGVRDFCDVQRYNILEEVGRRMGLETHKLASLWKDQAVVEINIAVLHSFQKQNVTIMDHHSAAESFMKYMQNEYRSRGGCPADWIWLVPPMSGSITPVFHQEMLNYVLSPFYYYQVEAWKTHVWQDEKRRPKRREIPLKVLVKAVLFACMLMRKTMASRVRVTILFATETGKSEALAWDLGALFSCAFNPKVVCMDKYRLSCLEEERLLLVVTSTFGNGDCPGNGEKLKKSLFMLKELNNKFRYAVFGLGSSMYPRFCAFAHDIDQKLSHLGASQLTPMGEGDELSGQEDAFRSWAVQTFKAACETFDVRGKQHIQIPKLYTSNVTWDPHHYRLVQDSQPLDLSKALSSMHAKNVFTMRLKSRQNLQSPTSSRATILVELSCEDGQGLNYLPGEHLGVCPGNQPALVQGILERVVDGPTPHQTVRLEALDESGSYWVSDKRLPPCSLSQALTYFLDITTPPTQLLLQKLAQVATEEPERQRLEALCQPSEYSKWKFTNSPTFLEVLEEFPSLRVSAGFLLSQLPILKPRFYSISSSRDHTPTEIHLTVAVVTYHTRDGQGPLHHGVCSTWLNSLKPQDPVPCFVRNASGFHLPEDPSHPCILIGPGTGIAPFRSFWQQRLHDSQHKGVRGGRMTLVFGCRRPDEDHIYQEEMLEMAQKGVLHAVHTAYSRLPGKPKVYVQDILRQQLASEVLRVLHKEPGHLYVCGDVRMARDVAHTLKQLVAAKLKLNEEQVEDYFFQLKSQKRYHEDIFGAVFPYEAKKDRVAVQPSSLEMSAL
T1 sequence (P29475 whole entry): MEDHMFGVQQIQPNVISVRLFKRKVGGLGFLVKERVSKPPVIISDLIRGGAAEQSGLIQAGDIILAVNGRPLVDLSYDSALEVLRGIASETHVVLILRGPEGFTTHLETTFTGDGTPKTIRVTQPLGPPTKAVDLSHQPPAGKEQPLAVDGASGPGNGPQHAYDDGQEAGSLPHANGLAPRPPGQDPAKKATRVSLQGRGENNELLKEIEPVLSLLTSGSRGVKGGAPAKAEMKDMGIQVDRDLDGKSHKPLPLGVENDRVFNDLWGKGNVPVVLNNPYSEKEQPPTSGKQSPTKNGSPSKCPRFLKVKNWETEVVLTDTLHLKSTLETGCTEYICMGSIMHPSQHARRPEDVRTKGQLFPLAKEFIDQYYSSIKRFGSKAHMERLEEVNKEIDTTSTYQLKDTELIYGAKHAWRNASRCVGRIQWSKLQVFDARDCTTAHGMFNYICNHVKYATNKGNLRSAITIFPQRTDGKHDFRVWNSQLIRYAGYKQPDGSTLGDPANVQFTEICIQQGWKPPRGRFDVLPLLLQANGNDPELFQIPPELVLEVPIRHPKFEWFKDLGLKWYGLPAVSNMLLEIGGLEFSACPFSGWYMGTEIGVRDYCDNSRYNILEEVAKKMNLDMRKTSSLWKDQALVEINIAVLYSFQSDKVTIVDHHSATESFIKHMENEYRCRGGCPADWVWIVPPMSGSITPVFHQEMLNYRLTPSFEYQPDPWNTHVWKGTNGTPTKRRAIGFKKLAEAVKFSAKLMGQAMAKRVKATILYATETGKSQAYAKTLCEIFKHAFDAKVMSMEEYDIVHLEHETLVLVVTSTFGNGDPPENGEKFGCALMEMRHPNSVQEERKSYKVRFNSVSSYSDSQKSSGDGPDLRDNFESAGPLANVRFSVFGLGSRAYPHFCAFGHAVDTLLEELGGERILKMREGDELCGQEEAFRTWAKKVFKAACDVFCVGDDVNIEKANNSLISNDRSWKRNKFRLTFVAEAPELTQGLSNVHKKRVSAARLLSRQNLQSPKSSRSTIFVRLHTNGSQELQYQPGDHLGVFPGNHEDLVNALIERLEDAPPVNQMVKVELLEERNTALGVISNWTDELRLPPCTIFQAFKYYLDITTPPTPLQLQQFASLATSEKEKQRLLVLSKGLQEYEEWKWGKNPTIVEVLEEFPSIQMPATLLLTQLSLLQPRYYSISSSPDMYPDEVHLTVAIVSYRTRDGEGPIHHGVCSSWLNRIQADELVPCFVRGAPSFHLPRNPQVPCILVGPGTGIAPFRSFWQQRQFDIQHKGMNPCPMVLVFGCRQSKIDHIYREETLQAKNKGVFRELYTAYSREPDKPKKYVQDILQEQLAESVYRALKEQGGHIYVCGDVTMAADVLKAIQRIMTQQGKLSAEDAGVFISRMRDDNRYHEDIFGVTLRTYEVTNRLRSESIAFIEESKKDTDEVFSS

Structure (SMILES) | IC50 [1] [µM] | IC50 [2] [µM] | IC50 [3] [µM] | inhibition [4] [%] | inhibition [5] [%]
Cc1cccc2oc(=O)[nH]c12 | > 50 | > 50 | > 50 | – | –
O=c1[nH]c2cc(F)ccc2o1 | > 50 | > 50 | > 50 | – | –
CN1CCN(Cn2c(=O)oc3ccc(Cl)cc32)CC1 | 4.4 | 15.5 | 1.2 | – | –
O=c1oc2ccc(Cl)cc2n1CN1CCCCC1 | 4.6 | 18.9 | 1.5 | – | –
N#Cc1ccc2oc(O)nc2c1 | 50 | 50 | 14.5 | – | –
Cc1ccc2nc(O)oc2n1 | 50 | > 50 | 7.4 | – | –
O=c1oc2ccc(Cl)cc2n1CCN1CCOCC1 | – | – | – | 0 | –
Cc1ccc2oc(O)nc2c1 | 50 | 10.6 | 9.9 | – | –
O=c1oc2ccc(Cl)cc2n1CN1CCOCC1 | 5.6 | 14.7 | 0.8 | – | –
CN(CCc1ccccc1)Cn1c(=O)oc2ccc(Cl)cc21 | 68 | 15.9 | 15.9 | – | –
Sc1nc2cc(Cl)ccc2o1 | > 50 | > 50 | > 50 | – | –

Other lines, results leading:

IC50 [1] [µM] | IC50 [2] [µM] | IC50 [3] [µM] | inhibition [4] [%] | inhibition [5] [%] | Structure (SMILES)
13.1 | > 50 | > 50 | – | – | Cc1ccc2[nH]c(=O)oc2c1
– | 8.4 | – | 74 | 71 | CN(Cn1c(=O)oc2ccc(Cl)cc21)c1ccccn1
– | – | > 50 | – | – | Oc1nc2ncccc2o1
4.4 | 20.3 | 3.5 | – | – | O=c1oc2ccc(Cl)cc2n1CN1CCSCC1
11.5 | 13.6 | 13.4 | – | – | CN(Cc1ccccc1)Cn1c(=O)oc2ccc(Cl)cc21
